Read-outs that look alike come from different tables or passages of the source.

In assay [1] the test system is HE cells. Put plainly: HE cell subculture with compounds, flow cytometry. The assay is classed as cell-based, human. The note with it: for HE-derived CD43+GPA+ cell output: day 3 of subculture vs control, UK5099 10 μM, DCA 3 mM. A general note: Flow cytometry measures light scatter and fluorescence of single cells or particles in a stream.
Source text: The RB9-CB1 human iPSC line was co-cultured with mouse embryonic fibroblasts (MEFs, Millipore), passaged every six days and processed to form embryoid bodies (EBs) as described previously (Guibentif, C. et al. Cell Reports 19, 10-19 (2017)). The differentiation protocol used in this study was previously described (Ditadi, A. & Sturgeon, C. M. Methods 101, 65-72 (2016)), however, small modifications were made to induce both primitive and definitive hematopoiesis, as indicated below and in FIG. 7, a. Newly-formed EBs were first kept in SFD medium supplemented with 1 ng/ml Activin A (on days 0-2) and 3 μM CHIR99021 (on day 2 only). At day 3, media was switched to “Day 3-SP34” medium supplemented with 1 ng/ml Activin A (on day 3 only) and 3 μM CHIR99021 (on day 3 only) until day 6. On day 6, media was replaced by “Day 6-SP34” medium, until day 8. In some experiments where indicated, to obtain a higher yield of HSC-like cells, EBs were kept until day 10: in this case, EBs were plated onto Matrigel (8 μg/cm^2, Corning)-coated dishes on day 8 and kept until day 10. Media was changed every day, except on days 5 and 7. On day 8 or 10 (as indicated), EBs were singularized with 5-6 rounds of 5-minute incubations with TryPLE Express (Thermo Fisher Scientific). CD34^+ cells were selected using the human CD34 MicroBead kit (Miltenyi Biotec) and stained with CD34-FITC, CD73-PE, VECad-PerCPCy5.5, CD38-PC7, CD184-APC, CD45-AF700, CD43-APCH7, GPA-eF450, CD90-BV605 and the viability marker 7AAD in order to sort HE (CD34^+CD43^−CXCR4^−CD73^−CD90^+VECad^+), EHT (CD34^+CD43^intCXCR4^−CD73^−CD90^+VECad^+) and HSC-like (CD34^+CD43^+CD90^+CD38^−) cells, according to previously described markers (Guibentif, C. et al. Cell Reports 19, 10-19 (2017); Harris, J. M. et al. Blood 121, 2483-2493 (2013) and Schenk, T. et al. Nat Med 18, 605-611 (2012)).
Sorted HE (40,000), EHT (30,000) and HSC-like (5-20,000) cells were plated onto Matrigel (16 μg/cm^2, Corning)-coated 96-well flat bottom plates in HE medium (30) with 1% penicillin-streptomycin and kept in a humidified incubator at 37° C., 5% CO2, 4% O2 overnight. […] Media was changed and drugs were added every 2 days and cells were kept in a humidified incubator at 37° C., 5% CO2, 20% O2 for 6-7 days.
(§1) To measure proliferation, cells were processed with the CellTrace Violet (CTV) kit according to manufacturer's instructions (10-minute incubation) and fluorescence was measured on a BD LSRFortessa. […] Flow cytometry outputs were analyzed on FlowJo Software, with initial gatings on SSC-A/FSC-A, FSC-H/FSC-A, SSC-H/SSC-A and 7-AAD to exclude doublets and dead cells in all experiments.
Another assay relates to EHT cells. Put plainly: EHT cell subculture with compounds, flow cytometry. The format is cell-based, human. The note with it: EHT cells, day 3; 2-DG 1 mM.
A further assay deals with HSC-like cells. Put plainly: HSC-like cell subculture with compounds, flow cytometry. The assay is classed as cell-based, human. The note with it: day 3, 2-DG 1 mM.
Assay [2] relates to HE cells. As to the kind of experiment: Lymphoid differentiation assay on OP9-DL1 stroma. The format is cell-based, human. As to conditions: 3-day subculture in glutamine-free medium, then 35-day co-culture. How it is done: Subculture day 3 HE cells cultured in the presence of UK5099 (10 μM), DCA (3 mM), or in glutamine-free medium with DMK (1.75 mM), nucleosides (1×) or NEAAs (1×), as indicated, were collected after a 2-minute incubation at 37° C. with StemPro Accutase Cell Dissociation Reagent and seeded onto 80% confluent OP9-DL1 stroma. Cells were cultured in OP9 medium with SCF (10 ng/ml), FLT3-L (10 ng/ml), IL-2 (5 ng/ml), IL-7 (5 ng/ml, first 15 days only) and IL-15 (10 ng/ml) with passaging onto new OP9-DL1 stroma every week, as described previously (Renoux, V. M. et al. Immunity 43, 394-407 (2015)). At day 35 of co-culture, cells were analyzed on a BD LSRFortessa.

In assay [3] the test system is HE, EHT and HSC-like cells. As to conditions: 100 μM FCCP, all cell types. As for the experimental part:
On days 3 and 6 of subculture, cells were collected after a 2-minute incubation at 37° C. with StemPro Accutase Cell Dissociation Reagent and stained with CD34-FITC, CD14-PE, CD33-PC7, CD11b-APC, CD45-AF700, CD43-APCH7, GPA-eF450, CD90-BV605 and the viability marker 7AAD and fluorescence was measured on a BD LSRII. To measure mitochondrial activity, cells were incubated with Tetramethylrhodamine ethyl ester (TMRE, 20 nM) for 30 minutes at 37° C. Negative controls were incubated with 100 μM FCCP for 30 minutes at 37° C., prior to TMRE staining. […] III and MFI levels—MFI FMO were calculated. […] III. To measure proliferation, cells were processed with the CellTrace Violet (CTV) kit according to manufacturer's instructions (10-minute incubation) and fluorescence was measured on a BD LSRFortessa. To measure EdU incorporation, HE cells were assessed on day 1 or 2 of subculture after 24 h EdU pulses, using Click-iT EdU Flow Cytometry Cell Proliferation Assay (Thermo Fisher Scientific, C10424), according to manufacturer's instructions. Flow cytometry outputs were analyzed on FlowJo Software, with initial gatings on SSC-A/FSC-A, FSC-H/FSC-A, SSC-H/SSC-A and 7-AAD to exclude doublets and dead cells in all experiments.

The mark [4] stands for this setting: day 6 of subculture vs control, BPTES 25 μM, 1-AA 4 mM, TCP 300 nM, C646 10 μM, CP 5 μM.

Source text for EHT cells: The RB9-CB1 human iPSC line was co-cultured with mouse embryonic fibroblasts (MEFs, Millipore), passaged every six days and processed to form embryoid bodies (EBs) as described previously (Guibentif, C. et al. Cell Reports 19, 10-19 (2017)). The differentiation protocol used in this study was previously described (Ditadi, A. & Sturgeon, C. M. Methods 101, 65-72 (2016)), however, small modifications were made to induce both primitive and definitive hematopoiesis, as indicated below and in FIG. 7, a. Newly-formed EBs were first kept in SFD medium supplemented with 1 ng/ml Activin A (on days 0-2) and 3 μM CHIR99021 (on day 2 only). At day 3, media was switched to “Day 3-SP34” medium supplemented with 1 ng/ml Activin A (on day 3 only) and 3 μM CHIR99021 (on day 3 only) until day 6. On day 6, media was replaced by “Day 6-SP34” medium, until day 8. […]
as §1

`N[C@@H]1C[C@H]1c1ccccc1` (racemic) [TCP, Tranylcypromine]: in the assay on HE cells [1], the “CD43+GPA+ cell frequency following UK5099 treatment of HE cells” value is listed as “no increase”, the “HE-derived CD43+CD45+ population” value was “more CD43^+CD45^+ cells” and the “myeloid differentiation (CD43+CD45+CD33+CD11b+)” value was “specifically increased”.

As for `CC(N)[PH](=O)O` (stereo not drawn) [1-AA, 1-aminoethylphosphinic acid], the “HE-derived CD43+GPA+ cell output” value in the assay on HE cells [1] (BPTES 25 μM, 1-AA 4 mM) is given as “significant increase”. In the assay on HE cells [1] (day 6, treated vs untreated), the “levels of total CD43+ cells” value is “unchanged”. The “HE-derived CD43+CD45+ population” value in the assay with HE cells [1] (setting [4]) was “significant decrease”.

`O=CC[C@@H](O)[C@H](O)[C@H](O)CO` [2-DG, 2-Deoxy-D-glucose]: in the assay on HE cells [1] (day 3, % of the control, 2-DG 1 mM), the “generation of the CD43+GPA+ cell population” value is “less than 50%”. In addition, in the assay with HE cells [1] (day 3 of subculture, 2-DG 1 mM), the “CD43+ cell output from HE cells” value is reported as “significantly reduced”. The “generation of the CD43+CD45+ cell population” value with HE cells [1] (day 6, % of the control, 2-DG 1 mM) is “less than 50%”. Besides, the “proliferation rate (CellTrace Violet)” value with EHT cells and with HSC-like cells was “significantly reduced” in each case.

In the case of `O=C(Cc1ccccc1)Nc1nnc(CCSCCc2nnc(NC(=O)Cc3ccccc3)s2)s1` [BPTES], in the assay with HE cells [1] (BPTES 25 μM, 1-AA 4 mM), the “HE-derived CD43+GPA+ cell output” value was “sharp decline”. The “HE-derived CD43+CD45+ population” value in the assay with HE cells [1] (setting [4]) was “sharp decline”.

Turning to `CC1=NN(c2ccc(C(=O)O)cc2)C(=O)/C1=C\c1ccc(-c2cc(C)c(C)cc2[N+](=O)[O-])o1` [C646], the “HE-derived CD43+CD45+ population” value in the assay on HE cells [1] (setting [4]) is on record as “did not have an effect”.

Turning to `O=C(c1c2ccccc2cc2ccccc12)N1CCC(N2CCC[C@@H](C(=O)N3CCOCC3)C2)CC1` [CP-640186], in the assay on HE cells [1] (setting [4]), the “HE-derived CD43+CD45+ population” value is listed as “had the same effect as DCA”.

On to `COC(=O)CCC(=O)C(=O)OC` [DMK, dimethyl-ketoglutarate], for which the “CD43+GPA+ population” value with HE cells [1] (HE subcultures without glutamine, days 3 and 6, vs control) is recorded as “could not rescue”. Moreover, the “proliferation profile of HE cells (CTV)” value with HE cells [1] (glutamine deprivation, day 3, vs control) is reported as “could not restore”. In addition, the “percentage of CD43+ cells that have lost CD34 expression” value with HE cells [1] (glutamine-free DMK-treated condition vs control, day 3) is given as “significantly decreased”. The “rescue of CD43+ cell output from HE cells” value in the assay on HE cells [1] (glutamine-free medium, day 3, DMK 1.75 mM) is recorded as “up to 60%”. The “percentages of CD43+CD45+ cells” value in the assay on HE cells [1] (glutamine-free medium, day 6, compared to the control) is on record as “significant increase”. Moreover, the “NK cell differentiation (CD45+CD56+)” value in the assay with HE cells [2] is given as “allowed efficient NK cell differentiation”.

Consider `N#CC(C#N)=NNc1ccc(OC(F)(F)F)cc1` [FCCP, Carbonyl cyanide 4-(trifluoromethoxy)phenylhydrazone], for which the TMRE signal result in assay [3] is reported as “abrogated the TMRE signal”.

As for `CC(/C=C/C(=O)NO)=C\[C@@H](C)C(=O)c1ccc(N(C)C)cc1` [TSA, Trichostatin A], the “emergence of CD43+ hematopoietic cells” value in the assay with HE cells [1] (TSA 60 nM, day 3) is recorded as “impaired the emergence”.

Turning to `CC(C)c1c(C(=O)Nc2ccccc2)c(-c2ccccc2)c(-c2ccc(F)cc2)n1CC[C@@H](O)C[C@@H](O)CC(=O)O` [atorvastatin], the “effect of DCA on CD43+CD45+ cells” value in the assay on HE cells [1] (Ato 0.5 μM in combination with DCA 3 mM) is “abrogated the effect of DCA”.

For the origin of these results see patent US20220348876A1, “METABOLISM GUIDES DEFINITIVE LINEAGE SPECIFICATION DURING ENDOTHELIAL TO HEMATOPOIETIC TRANSITION” (Amniotics AB, priority 2019, published 2022).
